Usually inhibition stands for how much of the control response was suppressed.

This is an account of results in patent US20030134859A1 (SANKYO COMPANY, LIMITED, priority 2000, published 2003).

In one test the test system is Rat white adipocytes. Put plainly: Stimulation of differentiation of the adipocytes (Oil Red O). Format: cell-based. Conditions: 100 nM test compound, 5 days, Oil Red O ABS550, control = 100%, blank = 0%, Table 7; for activity at 0.1 µM: Rattus norvegicus, Adipocyte, 120 h, read-out: Rate of Differentiation (%). A digest of the protocol: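 Oil Red O lipid staining, absorbance 550 nm after DMSO extraction, quantified differentiation of rat white adipocytes exposed 5 days to compound (final 100 nM, 0.1% DMSO) in differentiation medium. Percent differentiation normalised between cell-free blank (0%) and DMSO control (100%).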

In test [1] the test system is human colon cancer cells COL-2-JCK. Put plainly: Inhibition of colony forming activity in human colon cancer cells. As to conditions: 1 μM test compound, 10 days, sum of colony areas vs control; for inhibition at 1 µM: Homo sapiens, 240 h, read-out: Inhibition Rate (%) against the colony forming activity. Format: cell-based. A digest of the protocol:
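COL-2-JCK cells seeded at 300 cells/well and grown 10 days at 37 °C, 5% CO2 with compound at 1 μM final (0.1% DMSO). Colonies stained with crystal violet in formalin; inhibition % = (1 − treated/control colony area)×100.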

In the case of `Cc1ccc(NC(=O)c2cc([N+](=O)[O-])ccc2Cl)nc1` [Example 52, N-(5-Methylpyridin-2-yl)-(2-chloro-5-nitrophenyl)carboxamide], in the test with Rat white adipocytes, the activity at 0.1 µM amounted to 133%. Also, the inhibition at 1 µM in test [1] is 17%.
With `O=C(Nc1ccc(S(=O)(=O)Nc2nccs2)cc1)c1cc([N+](=O)[O-])ccc1Cl` [Example 96, N-[4-(Thiazol-2-yl)aminosulfonyl]phenyl-(2-chloro-5-nitrophenyl)carboxamide], the activity at 0.1 µM in the test with Rat white adipocytes came to 123%. In test [1], the inhibition at 1 µM was found to be 17%.
`Cc1cc(NS(=O)(=O)c2ccc(NC(=O)c3cc([N+](=O)[O-])ccc3Cl)cc2)no1` [Example 99]: in the test on Rat white adipocytes, the “Rate of Differentiation (%)” value is reported as 119.0%. In test [1], the “Inhibition Rate (%) against the colony forming activity” value is given as 32.0%.
On to `O=C(Nc1ccc(S(=O)(=O)Nc2ccc(Cl)nn2)cc1)c1cc([N+](=O)[O-])ccc1Cl` [Example 102, N-[4-[(6-Chloropyridazin-3-yl)aminosulfonyl]phenyl]-(2-chloro-5-nitrophenyl)carboxamide], for which the activity at 0.1 µM in the test on Rat white adipocytes was 114%. The inhibition at 1 µM in test [1] was found to be 26%.
On to “N-[4-(Pyrrolidinylsulfonyl)phenyl]-(2-chloro-5-nitrophenyl)carboxamide [Example 152]”, for which the “Rate of Differentiation (%)” value with Rat white adipocytes was determined as 112.7%. In addition, in test [1], the “Inhibition Rate (%) against the colony forming activity” value was determined as 24.0%.
